# Read-outs that look alike come from different tables or passages of the source.
# Tests used:
# [1] = test system: RSV A2; test: Lung and nose viral titers by plaque assay after RSV challenge, naive cotton rats; format: in vivo; conditions: 0.3 μg RSV sF IM, 4 days post challenge
# [2] = Lung histopathology after RSV challenge, naive BALB/c mice; format: in vivo; conditions: H&E lung sections day 4 post RSV challenge
# Protocol: Lung sections (5 micron) were prepared using a microtome from paraffin-embedded formalin-fixed lung lobes harvested at day 4 post RSV challenge. Sections stained with hematoxylin and eosin were digitally scanned and examined by a licensed pathologist. Lung sections were evaluated for pulmonary lesion characteristics such as presence of bronchiolar hyperplasia, alveolitis, eosinophilic infiltrate and infiltration of the peribronchiolar/perivascular spaces.
# [3] = test system: RSV A2; test: RSV A2-GFP microneutralization of sera, naive Sprague Dawley rats; format: in vivo; conditions: Day 22, 22 days post Dose 1; RSV sF 10 and 100 μg groups
# Protocol: In a subsequent study, the immunogenicity and protection following a prime-boost regimen of RSV-SF was evaluated. 40 naive female Sprague Dawley rats were divided into designated vaccine cohorts of 5-6 animals per cohort. Briefly, test groups were given RSV sF (10 μg or 100 μg per animal) without adjuvant or RSV sF (10 μg or 100 μg per animal) with GLA-SE (2.5 μg in 2% SE). Negative control groups were dosed with placebo (PBS buffer) or adjuvant GLA-SE (2.5 μg/2%) without RSV sF. […] Groups 1-6 were inoculated IM with 500 μL of designated vaccine article on Day 0 and Day 22, while Group 7 was inoculated IN with 200 μL of RSV A2 virus on day 0 only. […] Rats were euthanized at 4 days post challenge on Day 46, the day of peak viral replication determined from Study 1. Lungs (excluding 1 lobe which was formalin-fixed) and noses were homogenized and quantified for viral titers.
# Serological responses to vaccination were evaluated at 6 hours post immunization, D22, and D42 for all animals and at Day 14 for a subset of 3 animals per group. […] Serum obtained 6 hours post-immunization was evaluated for cytokine titers by multiplexed ELISA. Serum from Days 14, 22, and 42 were measured for total anti-F IgG ELISA endpoint dilution titers. Day 42 serum was evaluated for the specific contribution of IgG1, IgG2a, and IgG2b anti-F responses by ELISA endpoint dilution titers. […]
# [4] = test system: RSV sF protein
substance,measurement,setting,value
"RSV sF: RSV soluble F protein, amino acids 1-524 of the RSV A2 F sequence lacking the transmembrane domain, given without adjuvant",mean RSV titer in the lungs,[1],5.4 log10 pfu/gram
same,mean RSV titer in the nose,[1],4.9 log10 pfu/gram
same,pulmonary inflammation / lesion scores,[2],increased pulmonary lesion scores
same,serum neutralizing titers (log2 GMT IC50),[3],not significantly different from placebo
same,animals with ≧4-fold rise in IgG titers at Day 183 compared to Day 169,[4]; 4 animals per group,2 of 4
same,geomean anti-F IgG titer,"[4]; Day 42, 100 μg RSV sF at days 0 and 28",10.45±2.68 log 2
same,geomean anti-F IgG titer,"[4]; Day 183, 14 days post booster at Day 169",12.55±2.16 log 2

# — patent publication US20160144021A1, “Vaccine Composition And Method Of Use” (MEDIMMUNE, LLC, priority 2013, published 2016)
